Measured values from patent US20240108002A1, “1-AMINO-1-CYCLOPROPANECARBOXYLIC ACID AND PROHYDROJASMON MIXTURES AND USES THEREOF” (Valent BioSciences LLC, priority 2022, published 2024).

Tested on: Imperial Gala apples
Assay: Apple coloration in Imperial Gala variety, percent red pixel area after foliar spray
Type: in vivo
Details: for Average % Red Pixel Area: foliar spray, 34 hours post spray; for Fold Change From control: vs 0.05% Regulaid control
Procedure: 10 sets of unripened apples, Imperial Gala variety, harvested three weeks before the normal harvest date, were each foliar sprayed with either 1) 0.05% Regulaid® as a control, 2) 50 ppm prohydrojasmon, 3) 300 ppm prohydrojasmon, 4) 50 ppm ACC, 5) 300 ppm ACC or 6) a mixture of 50 ppm prohydrojasmon and 50 ppm ACC or 7) a mixture of 300 ppm prohydrojasmon and 300 ppm ACC. 34 hours post spray application percent red pixel area (shaded) was measured. Percent red pixel area is an indication of the coloration of the apple fruit.
To determine if the mixture provided unexpected results, the observed combined efficacy (“OCE”) was divided by the expected combined efficacy (“ECE”) wherein the ECE is calculated by the Abbott method: […]
wherein ECE is the expected combined efficacy and in which A and B are the fold change from control given by the single active ingredients. If the ratio between the OCE of the mixture and the ECE of the mixture is greater than 1, then greater than expected interactions are present in the mixture. (Gisi, Synergistic Interaction of Fungicides in Mixtures, The American Phytopathological Society, 86:11, 1273-1279,1996).

Row | Compound | Average % Red Pixel Area (single active at 50 ppm) | Fold Change From control (single active at 50 ppm) | Average % Red Pixel Area (single active at 300 ppm) | Fold Change From control (single active at 300 ppm)
1 | NC1(C(=O)O)CC1 [ACC, 1-amino-1-cyclopropanecarboxylic acid] | 7.02% | 0.03 | 4.66% | −0.31
2 | CCCCCC1C(=O)CCC1CC(=O)OCCC (centres unmarked) [prohydrojasmon] | 15.84% | 1.33 | 21.03% | 2.09
